The values that follow come from patent US10172835B2, “Anticancer agent composition” (J-Pharma Co., Ltd., priority 2014, dated 2019).

Where a name gives a salt, the structure may show the parent alone.

Test [1] concerns KO99L cells. In words: Annexin-V / DAPI apoptosis assay, KO99L cells. Format: cell-based, murine. The conditions noted are these: 20.0 μM. As for the experimental part:
Apoptosis assessment was performed by measuring phosphatidyl-serine membrane redistribution via annexin-V-FITC (Invitrogen). Cells (5.0±0.1×10^5 per well; 2.0 mL) were incubated with effectors, and re-suspended in staining solution (110 μL; Annexin-V ( 1/10) and incubated in the dark (15 min, RT). […] Basal apoptosis and necrosis were determined on control untreated cells.

The test system of test [2] is HT-29 cell derived from human large intestine cancer. In words: Tumor growth in nude mouse inoculated subcutaneously with HT-29 cells. In kind it is in vivo. As for the experimental part: A HT-29 cell was inoculated subcutaneously into a mouse, and the transition of the size of the tumor lump was measured with time from the day on which the tumor has grown to a certain size, when each of COM-JP and 5-FU was used alone or in combination.

Test [3] has as its system human Peripheral Blood Lymphocytes. In words: Proliferative response of human PBL. Format: cell-based. Particulars: 1.0 μM, positive inducer of cell death.
In test [4] the test system is KO99L cells. In words: Combination studies with COMPOUND-JP, WST-1 viability, Chou-Talalay combination index. Particulars: 48 h, suboptimal concentrations, in combination with COMPOUND-JP. In kind it is cell-based, murine.
Method: Combinations were analyzed by ANOVA followed by Tukey's Multiple comparison test to determine significance between experimental groups. The synergism between drugs was analyzed using the Chou-Talalay method. […] P-value <0.05 was accepted as statistically significant (*:p<0.05; **:p<0.01; ***:p<0.001). Analyses were performed using the GraphPAd Prism 3.0 software.
Test [5] concerns caspase 3. In words: Western blot of caspase 3 activation and PARP cleavage in primary tPTEN−/− tumor cells (KO#732). The conditions noted are these: primary KO#732 cells; COMPOUND-JP 5.0, 10.0 μM; PI-103 10.0 μM; rapamycin 10.0 nM; 2.0-18.0 h. In kind it is cell-based, murine. On the procedure: (§1) Cell extracts were prepared using a cell lysis buffer (50 mM HEPES, pH 7.4, 150 mM NaCl, 20 mM EDTA, 100 mM NaF, 10 mM Na3VO4, 0.5% nonyl phenoxypolyethoxylethanol (NP40) supplemented with a cocktail of protease inhibitors. After SDS-PAGE separation and transfer to nitrocellulose immunoblotting was performed using the following antibodies against: Akt (Cell Signaling Technologies, #9272), CHOP (#2895), cleaved caspase 3 (#9664), c-Myc (#9402), eIF2a (#9721), 4EBP1 (#9644), LC3A/B (#12741), PARP (#9542), pJnk (T183/Y185) (#9251), pSer235-236-S6RP (#4856), pSer473-Akt (#9271), pSer65-4EBP1 (#9451) and S6RP (#2217); Bax (Sigma-Aldrich, B8429); PUMA (Abcam, ab54288); Bak (Millipore, 06536); ATF4 (Santa Cruz Biotechnologies, sc200), GADD34 (sc8327), Hsp60 (sc-1722), Hsp90 (sc-13119) and XBP1 (sc-7160); ATF6 (Imgenex, IMG-273).

In test [6] the test system is KO99L cells. In words: BrdU incorporation Elisa (proliferation) on KO99L cells. Format: cell-based, murine. Particulars: 50.0 μM, KO99L cells. As for the experimental part:
Two different assays were employed: i) In a 96-well plate format, cells (4.0±0.1×10^4 per well; 100 μL) were incubated with effectors (48 h, 37° C.; n=4 per experiment) and then WST-1 reagent (10 μL; Roche Diagnostics) added to each well of 96-well plates, incubated, and the formazan production was measured at 490 nm; and ii) cells (2.0±0.1×10^4 per well; 100 μL) were incubated with effectors (48 h, 37° C.; n=4 per experiment) and then bromodeoxyuridine reagent (10 μL/well; Roche Diagnostics) was added to each well and incubated (8 h, 37° C.). The cells were then fixed, denatured and incubated with anti-BrdU-conjugated with peroxidase (POD) antibody (100 μL/well). Colorimetric substrate (TMB: tetramethyl-benzidine; 100 μL/well) was added and BrdU incorporation quantified via optical density measurement (450 nm) which corresponds to DNA synthesis and proliferating cells.

Test [7] concerns caspase 3. In words: Western blot of caspase 3 activation and PARP cleavage, KO99L cells. Format: cell-based, murine. Particulars: 50.0 μM. As for the experimental part:
as §1

The subject of test [8] is KO99L cells. In words: Cell death by flow cytometry after DAPI staining, KO99L cells. In kind it is cell-based, murine. Particulars: 50.0 μM.
Test [9] relates to CHOP. In words: Western blot of CHOP protein levels, KO99L cells. Format: cell-based, murine. The conditions noted are these: 50.0 μM. As for the experimental part: as §1
For test [10], the system named is Bcl2 family members. In words: Western blot of Bcl2 family members, KO99L cells. In kind it is cell-based, murine. As for the experimental part: as §1

Regarding `CC(C)[C@H](NC(=O)c1ccc2ccccc2n1)C(=O)N[C@@H](CC(=O)O)C(=O)COc1c(F)cccc1F` [QvD-OPH, reference compound], the “quantity of apoptotic cells when co-administered with COMPOUND-JP” value in test [1] is “markedly decreased the quantity of apoptotic cells”.

In the case of `O=c1[nH]cc(F)c(=O)[nH]1` [5-FU, 5-fluorouracil], the “combined effect with COM-JP on tumor growth” value in test [2] (COM-JP and 5-FU in combination) is given as “additive”. Moreover, in [2] (compared with untreated control group), the “increase of the tumor, single administration” value is on record as “more significant decrease”.

As for `CN[C@@H]1C[C@H]2O[C@@](C)([C@@H]1OC)n1c3ccccc3c3c4c(c5c6ccccc6n2c5c31)C(=O)NC4` [staurosporine, reference compound], the PBL cell proliferation result in test [3] is recorded as “strongly affected cell proliferation”.

With `Oc1cccc(-c2nc(N3CCOCC3)c3oc4ncccc4c3n2)c1` [PI103, 3-[4-(4-Morpholinylpyrido[3′,2′:4,5]furo[3,2-d]pyrimidin-2-yl]phenol hydrochloride, reference compound], the “combination effect with COMPOUND-JP on metabolic activity/cell survival (Combination Index)” value in test [4] was “less efficient”. In addition, the “caspase 3 processing and PARP cleavage (apoptosis)” value in test [5] was “efficient cell death inducer”.

In the case of `O=C(C=Cc1ccccc1)NC(NC(=S)Nc1cccc2cccnc12)C(Cl)(Cl)Cl` (centres unmarked) [salubrinal, N-(2,2,2-trichloro-1-(3-(quinolin-8-yl)thioureido)ethyl)cinnamamide, reference compound], the “cell proliferation (BrdU incorporation or cell counting) in presence of COMPOUND-JP” value in [6] is on record as “restored cell proliferation”. The “caspase 3 cleavage in presence of COMPOUND-JP” value in test [7] is given as “decreased caspase 3 cleavage”. For the same compound, the “cell death induced via COMPOUND-JP” value in [8] is recorded as “rescue KO99L cells against cell death”. The “effect on CHOP induction by COMPOUND-JP (10.0 μM)” value in test [9] was “offset CHOP induction”. Moreover, the “COMPOUND-JP induction of Bax, Bak, PUMA and Bim in presence of salubrinal” value in test [10] was “sensitive to inhibition of CHOP by salubrinal”.
